Laboratory results published in US9726659B2, “CMPF as a biomarker for diabetes and associated methods” (The Governing Council of the University of Toronto, priority 2012, dated 2017).

Assays:
MIN6 cells = assay: Annexin V and propidium iodide staining for apoptosis and necrosis; type: cell-based, murine; settings: 5 mM, 3 hrs
Method: A) MIN6 cells were treated for 4 hrs with 0 uM (EtOH vehicle control), 20 uM or 200 uM CMPF prior to being loaded with Annexin V and propidium iodide fluorescent dyes, and counterstained with Hoechst dye. […] B) Primary CD1 islets were dispersed and treated with vehicle control (0 CMPF, black), 20 uM CMPF (grey), or 200 uM CMPF (white) for 48 hours, then stained with Annexin V, Propidium Iodide and Hoechst dye. Quantification of double positive staining was assessed by an Arrayscan VTI HCS reader.
Next the mechanism underlying the observed impairment in GSIS following treatment with CMPF was investigated. To determine whether CMPF was inhibiting GSIS by inducing beta cell apoptosis, Annexin V and Propidium Iodide staining was performed in MIN6 cells treated with vehicle (EtOH), 20 uM or 200 uM CMPF for 4 hrs to look for apoptosis and necrosis respectively. […] MIN6 cells treated with 5 mM H2O2 for 3 hrs were used as a positive control (FIG. 4).

murine islets = assay: Total insulin content in murine islets; type: cell-based; settings: co-treatment with 500 μM NAC, 24 hr
Method: Murine islets were treated for 24 hrs with vehicle control (0 CMPF), 20 uM (20 CMPF), or 200 uM (200 CMPF) CMPF, and assessed for total insulin content and mRNA expression. […] Decreased expression of insulin processing enzymes PCSK1, 2 and CpE (F), (G), (H) indicate that CMPF may also impair post-translational insulin processing. Finally, CMPF causes decreased expression of the beta cell glucose transporter GLUT2, and GCK, the rate-limiting enzyme critical for glucose metabolism (I) and (J), perhaps impairing glucose sensing and metabolism. In all cases n=4, *P<0.05.
In the absence of apoptosis and necrosis, CMPF must be impairing GSIS by causing beta cell dysfunction. First, the effect of CMPF treatment on insulin biosynthesis was investigated to determine if insulin is available to be released upon stimulation. MIN6, murine and human islets were treated with vehicle control, 20 uM and 200 uM CMPF for 4 hrs (MIN6) or 24 hrs (islets), and total insulin content measured. […] Lower total insulin content may be due to either defective insulin processing from proinsulin to mature insulin, or insufficient insulin transcription. To determine the mechanism through which CMPF is reducing total insulin content, quantitative PCR (qPCR) was performed on RNA that was isolated from murine islets treated with either vehicle control or 200 uM CMPF for 24 hrs.

primary murine islets = assay: Glucose- and KCl-stimulated insulin secretion in primary murine islets; type: cell-based; settings: co-treatment with 500 μM NAC, 24 hr
Method: LG=2.8 mM glucose, HG=16.7 mM glucose, KCl=16.7 mM glucose+30 mM KCl. *p<0.05.
Since beta cell failure is a major underlying cause of both GDM and T2D, the effect of increased CMPF on beta cell function was investigated both in vitro and in vivo. Using physiological concentrations of CMPF (20 uM and 200 uM, as observed in our NGT-pregnant and GDM-pregnant samples respectively (FIG. 2)), as well as a vehicle control (EtOH), its effect was studied on glucose-stimulated insulin secretion (GSIS) and insulin secretion in response to direct depolarization using the secretagogue KCl in an immortalized murine beta cell line (MIN6), as well as primary isolated human and murine islets (FIG. 3A). […] Therefore, high physiologically relevant levels of CMPF impair GSIS.

mouse islets = assay: ROS accumulation in isolated islets (mitoSOX red, CM-H2-DCFDA); type: cell-based; settings: co-treatment with 500 μM NAC, 24 hr
Method: A) Proinsulin in the media of 24 hr treated islets (n=4/group). B) Mitochondrial membrane potential (MMP) following acute addition of vehicle control or 200 μM of CMPF (N=3/group). C) ROS levels in 4- and 24-hour treated mouse islets with representative images (N=10-15 islets/mouse from 4 mice/group). D) Expression of antioxidant genes Cat and (e) Ucp2 (n=4/group). F) ROS accumulation in 24 hr-treated islets treated with 500 μM NAC (n=10 islets/mouse from 4 mice/group). G) GSIS and (h) total insulin content from 24 hr-treated islets co-treated with 500 μM NAC (n=4/group). Western blots showing (i) Ser9 phosphorylation of GSK3β, (j) Ser473 phosphorylation of AKT (n=3/group). K) Immunofluorescent staining showing nuclear translocation of FOXO1 and (l) PDX1 with CMPF and NAC treatment (n=3-6). Quantification of nuclear percentage of (m) FOXO1 and (n) PDX1 based on immunofluorescent staining with CMPF and NAC treatment. O) Western blots showing protein abundance of PDX1 and FOXO1. Values are mean+/−SEM. Student's t-test (a, c-j, m-o), one-way ANOVA (b). *P<0.05, **P<0.01, ***P<0.001.
The level of superoxide and H2O2 were determined using mitoSOX red and 2′,7′-dichlorodihydro fluorescein diacetate (CM-H2-DCFDA) respectively (Molecular Probes, Invitrogen, Canada) in isolated islets treated with either vehicle control or 200 μM CMPF for 4 or 24 hours, as previously described (Lee et al. 2009). […]

[1] = tested on: dispersed CD1 mouse islet cells; assay: Immunofluorescent staining of FOXO1 and PDX1 localization; type: cell-based; settings: treatment with NAC
Method: The cellular localization of FOXO1 and PDX1 were determined in dispersed CD1 mouse islet cells using immunofluorescence. The presence of the organic anion transporters (OATs) were determined in dispersed human islet cells also using immunofluorescence. Staining was performed as previously described (Diao et al., 2008). Images were acquired using a confocal microscope (Quorum Wave FX Spinning Disc; Perkin Elmer, Waltham M L, USA) and Volocity software (Perkin Elmer).
To determine the mechanism through which CMPF decreases insulin biosynthesis we examined its effect on these key regulators. Under normal conditions, AKT and GSK3β have reciprocal activities. Active pAKT phosphorylates and inactivates GSK3β, preventing phosphorylation of downstream targets (Humphrey et al., 2010). […] FOXO1 is normally sequestered in the cytosol due to phosphorylation by AKT (Kitamura et al., 2005). […] Altered activity of these transcription factors is further confirmed by decreased mRNA levels of key target genes including Inst, transcription factors Pdx1 and Mafa, proinsulin processing enzymes CpE, Pc1 and Pc2, and the glucose transporter Glut2 (Boucher et al., 2006; Kaneto et al. 2008) (FIG. 18a).

CD1 mouse islets = assay: GSIS and insulin content of CMPF-treated islets with OAT inhibitors; type: cell-based
Source text: A) Microarray analysis of human islets showing expression of OAT transporters and beta-cell genes (n=3). Validation of OAT expression in human islets by (b) RT-PCR, (c) western blot, and (d) immunofluorescent staining with insulin (n=3-5). Human kidney samples are from the HK2 human proximal tubule cell line. GSIS from murine islets co-treated with OAT inhibitors (e) Probenecid, (f) benzylpenicillin (PCG) and (g) p-aminohippurate (PAH) (n=4/group). h) Total insulin content from murine islets co-treated with CMPF and PCG (n=4). Values mean+/−SEM. Student's t-test (a, e-h). *P<0.05, **P<0.01, ***P<0.001.
To determine if the OAT transporters are responsible for CMPF transport into beta cells, CD1 mouse islets were pre-treated 1 mM Probenecid prior to the addition of CMPF to ensure blockage of the channels and complete exclusion of CMPF from the cells. A dosage of 1 mM Probenecid was selected based on previous evidence that this concentration was sufficient to inhibit anion transport from beta cells without any observed effect on glucose-stimulated insulin secretion (Arkhammar et al. 1989). Islets were pre-treated with 1 mM Probenecid for 3 hours prior to the addition of 200 uM CMPF. After 24 hours cells were assessed by GSIS. Treatment with 200 uM CMPF alone produced a significant decrease in GSIS under both high glucose and KCl-stimulated conditions, consistent with previous findings, while treatment with 1 mM Probenecid for 27 hours had no effect on GSIS compared to vehicle controls. […] Therefore, probenecid inhibits the effect of CMPF. Similar results were obtained using the OAT3-specific inhibitor PCG. Islets were again pre-treated for 3 hours with 300 uM PCG prior to 24-hour 200 uM CMPF treatment (FIG. 14B).
To determine if OATs are responsible for CMPF transport into beta-cells, we utilized inhibitors of OAT function. Probenecid is a non-specific OAT-blocker (Miyamoto et al., 2012). Treatment of islets with 1 mM probenecid for 24 hrs rescued insulin secretion from CMPF-treated islets to control levels (FIG. 19e). To determine which OAT is primarily responsible for CMPF transport into beta-cells, we treated islets with 300 μM of benzylpenicillin (PCG), an OAT3-specific inhibitor, or 50 μM of paminohippurate (PAH), an OAT1-specific inhibitor (Deguchi et al., 2005). Consistent with previous reports that OAT3 is the dominant CMPF transporter (Deguchi et al., 2005), PCG was able to rescue insulin secretion and insulin content from CMPF-treated islets to control levels (FIG. 19f,h). However, treatment with PAH had no effect on secretion (FIG. 19g). Therefore, CMPF is transported into the beta-cell through OAT3, and blockage of this transporter prevents CMPF from impairing GSIS and insulin biosynthesis.

OAT3 = molecular target: T1, OAT3 (Rattus norvegicus, UniProt Q9R1U7); settings: concentrations of PCG that selectively inhibit OAT3; cited from earlier work
T1 construct: host or cells: kidney (in vivo, per the cited study)
T1 sequence (Q9R1U7 1-536): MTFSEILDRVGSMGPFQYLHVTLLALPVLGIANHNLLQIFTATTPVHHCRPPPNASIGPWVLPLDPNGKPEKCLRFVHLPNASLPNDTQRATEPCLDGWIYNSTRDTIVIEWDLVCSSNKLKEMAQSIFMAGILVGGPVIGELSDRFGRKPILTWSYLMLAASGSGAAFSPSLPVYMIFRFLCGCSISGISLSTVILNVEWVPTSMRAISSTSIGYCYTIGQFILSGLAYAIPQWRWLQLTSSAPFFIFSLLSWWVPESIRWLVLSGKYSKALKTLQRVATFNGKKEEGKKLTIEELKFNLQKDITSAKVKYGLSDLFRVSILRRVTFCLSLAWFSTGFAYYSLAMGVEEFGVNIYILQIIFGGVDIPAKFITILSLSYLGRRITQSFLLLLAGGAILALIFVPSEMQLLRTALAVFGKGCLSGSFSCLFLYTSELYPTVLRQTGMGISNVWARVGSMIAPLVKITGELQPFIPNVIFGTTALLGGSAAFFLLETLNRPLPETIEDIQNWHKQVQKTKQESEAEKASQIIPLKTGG

OAT transporter = settings: 5 mg/kg CMPF co-administered with 150 mg/kg probenecid; cited from earlier work
mice = assay: Probenecid IP twice daily for 3 days in mice; type: in vivo
Method: Mice were injected IP with 150 mg/kg probenecid twice daily for 3 days as previously described (Baudoux et al., 2012).

[2] = 150 mg/kg IP twice daily for 3 days

In the case of OO [H2O2, reference compound], the “Annexin V and propidium iodide staining (positive control)” value (MIN6 cells) is reported as “only observed in the positive control”.

With CC(=O)N[C@@H](CS)C(=O)O [NAC, N-Acetyl-Cysteine, reference compound] the “insulin content in CMPF-treated islets” value (murine islets) was “rescued”, the “insulin secretion (GSIS) in CMPF-treated islets” value (primary murine islets) was “rescued” and the “CMPF-induced increase in ROS production” value (mouse islets) was “inhibited”. The “CMPF-induced translocation of FOXO1” value [1] was “prevented” and the “CMPF-induced translocation of PDX1” value [1] was “prevented”.

For Nc1ccc(C(=O)NCC(=O)O)cc1 [PAH, p-aminohippurate], the “insulin secretion of CMPF-treated islets” value (CD1 mouse islets; 50 μM) was “no effect”.

For CC1(C)S[C@@H]2[C@H](NC(=O)Cc3ccccc3)C(=O)N2[C@H]1C(=O)O [PCG, benzylpenicillin], the CMPF secretion prevented (OAT3) is listed as 65-75%, the “insulin secretion, inhibitor alone” value (CD1 mouse islets; 300 uM) is listed as “no significant effect” and the “effect of 200 uM CMPF on insulin secretion under high glucose” value (CD1 mouse islets; 300 uM, 3 hour pre-treatment, then 24 hours with CMPF) is listed as “inhibited the effect of CMPF”. The “insulin content of CMPF-treated islets” value (CD1 mouse islets; 300 μM, to control levels) was “rescue”.

In the case of CCCN(CCC)S(=O)(=O)c1ccc(C(=O)O)cc1 [probenecid], the “plasma clearance of CMPF” value (OAT transporter) is listed as “significantly reduced”, the “effect of 200 uM CMPF on high-glucose and KCl-stimulated insulin secretion” value (CD1 mouse islets; 1 mM, 3 hour pre-treatment, then 24 hours with CMPF) is listed as “completely abolished the effect of CMPF” and the “GSIS, inhibitor alone vs vehicle” value (CD1 mouse islets; 1 mM, 27 hours) is listed as “no effect”. The body weight (mice; [2]) was “No differences”, the fasting blood glucose (mice; [2]) was “No differences” and the “plasma uric acid concentrations” value (mice; 150 mg/kg twice daily) was “significantly reduced”. For the same compound, the “glucose tolerance (2 g/kg OGTT)” value (mice; on the 4th day) was “no significant difference”.
